Common to all, as to format: cell-based
Experiment [1] deals with T1, EGFR WT (Homo sapiens, UniProt P00533). The experiment in a line: Activity for inhibiting EGFR (Table A), EGFR WT. Particulars: read-out: EGFR WT, potency code (IC50).
Experiment [2] has as its target T2, HER2 WT (Homo sapiens, UniProt P04626). As to the kind of experiment: BaF3 cell proliferation assay, HER2 WT (Table B). Particulars: potency code, 3 days, CellTiterGlo, read-out: HER2 WT (Activity for Inhibiting HER2). Background: In ATP-based viability assays light output follows the ATP content of the culture.
Experiment [3] deals with T3, HER2 YVMA (Homo sapiens, UniProt P04626, INS775YVMA).
T3 construct: expressed in transfected cells; host or cells: BaF3 (murine pro-B)
The experiment in a line: Activity for inhibiting HER2 (Table B), HER2 YVMA. The settings on record: read-out: HER2 YVMA, potency code (IC50). The procedure:
(§1) EC50 values were determined with the same application.

For experiment [4], the target named is T4, EGFR V3 (Homo sapiens, UniProt P00533, DELINS30-297G).
T4 construct: expressed in transfected cells; host or cells: BaF3 (murine pro-B), retroviral pMXs-IRES-Blasticidin
As to the kind of experiment: Activity for inhibiting EGFR (Table A), EGFR V3 (EGFR-Viii). The settings on record: read-out: EGFR V3, potency code (IC50).

Experiment [5] has as its target T5, EGFR SVD (Homo sapiens, UniProt P00533, DUP768-770).
T5 construct: expressed in transfected cells; host or cells: BaF3 (murine pro-B), retroviral pMXs-IRES-Blasticidin
The experiment in a line: BaF3 cell proliferation assay, EGFR SVD (Table A). Particulars: potency code, 3 days, CellTiterGlo, read-out: EGFR SVD (Activity for Inhibiting EGFR). The procedure: (§2) Retroviral Production: EGFR mutants were subcloned into pMXs-IRES-Blasticidin (RTV-016, Cell Biolabs, San Diego, Calif.). Retroviral expression vector retrovirus was produced by transient transfection of HEK 293T cells with the retroviral EGFR mutant expression vector pMXs-IRES-Blasticidin (RTV-016, Cell Biolabs), pCMV-Gag-Pol vector and pCMV-VSV-G-Envelope vector. Briefly, HEK 293T/17 cells were plated in 100 mm collagen coated plate (354450, Corning Life Sciences, Tewksbury, Mass.) (4×10^5 per plate) and incubated overnight. The next day, retroviral plasmids (3 μg of EGFR mutant, 1.0 μg of pCMV-Gag-Pol and 0.5 μg pCMV-VSV-G) were mixed in 500 μl of Optimem (31985, Life Technologies). The mixture was incubated at room temperature for 5 min and then added to Optimem containing transfection reagent Lipofectamine (11668, Invitrogen) and incubated for 20 minutes. Mixture was then added dropwise to HEK 293T cells. The next day the medium was replaced with fresh culture medium and retrovirus was harvested @ 24 and 48 hrs.
(§3) Generation of EGFR mutant stable cell lines: BaF3 cells (1.5E5 cells) were infected with 1 ml of viral supernatant supplemented with 8 μg/ml polybrene by centrifuging for 30 min at 1000 rpm. Cells were placed in a 37° C. incubator overnight. Cells were then spun for 5 minutes to pellet the cells. Supernatant was removed and cells re-infected a fresh 1 ml of viral supernatant supplemented with 8 μg/ml polybrene by centrifuging for 30 min at 1000 rpm. Cells were placed in 37° C. incubator overnight. […] After 48 hours cells were selected for retroviral infection in 10 μg/ml Blasticidin for one week. Blasticidin resistant populations were washed twice in phosphate buffered saline before plating in media lacking IL-3 to select for IL-3 independent growth.
as §1

Experiment [6] deals with T6, EGFR NPH (Homo sapiens, UniProt P00533, DUP771-773).
T6 construct: expressed in transfected cells; host or cells: BaF3 (murine pro-B), retroviral pMXs-IRES-Blasticidin
As to the kind of experiment: Activity for inhibiting EGFR (Table A), EGFR NPH. Particulars: read-out: EGFR NPH, potency code (IC50).

The target of experiment [7] is T5, EGFR SVD. The experiment in a line: Activity for inhibiting EGFR (Table A), EGFR SVD. Particulars: read-out: EGFR SVD, potency code (IC50).
The target in experiment [8] is T6, EGFR NPH. As to the kind of experiment: BaF3 cell proliferation assay, EGFR NPH (Table A). The settings on record: potency code, 3 days, CellTiterGlo, read-out: EGFR NPH (Activity for Inhibiting EGFR). The procedure: as §2, §3, §1
For experiment [9], the target named is T2, HER2 WT. As to the kind of experiment: Activity for inhibiting HER2 (Table B), HER2 WT.
The target of experiment [10] is T7, HER2 S310F (Homo sapiens, UniProt P04626, S310F).
T7 construct: expressed in transfected cells; host or cells: BaF3 (murine pro-B)
The experiment in a line: Activity for inhibiting HER2 (Table B), HER2 S310F. The settings on record: read-out: HER2 S310F, potency code (IC50). The procedure:
as §1

Experiment [11] addresses T1, EGFR WT. As to the kind of experiment: BaF3 cell proliferation assay, EGFR WT (Table A). Particulars: potency code, 3 days, CellTiterGlo, read-out: EGFR WT (Activity for Inhibiting EGFR). In short, it runs like this:
(§4)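 BaF3 + retroviral EGFR/HER2 mutant (two rounds of spinfection, 8 μg/ml polybrene); 10 μg/ml Blasticidin selection 1 wk; IL-3 withdrawn to select IL-3-independent growth. EC50 from cell proliferation.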

Experiment [12] concerns the target T4, EGFR V3. As to the kind of experiment: BaF3 cell proliferation assay, EGFR V3 (Table A). The settings on record: potency code, 3 days, CellTiterGlo, read-out: EGFR V3 (Activity for Inhibiting EGFR). In short, it runs like this: as §4
The target of experiment [13] is T7, HER2 S310F. As to the kind of experiment: BaF3 cell proliferation assay, HER2 S310F (Table B). The settings on record: potency code, 3 days, CellTiterGlo, read-out: HER2 S310F (Activity for Inhibiting HER2).
Experiment [14] addresses T3, HER2 YVMA. The experiment in a line: BaF3 cell proliferation assay, HER2 YVMA (Table B). Particulars: potency code, 3 days, CellTiterGlo, read-out: HER2 YVMA (Activity for Inhibiting HER2).
[15] abbreviates: Table B, read-out: HER2 WT, potency code (IC50).
The mark [16] stands for this setting: text lists of compounds, read-out: IC50 value for inhibiting wild-type HER2.

T6 sequence (P00533 with tags, fused parts or gaps DUP771-773): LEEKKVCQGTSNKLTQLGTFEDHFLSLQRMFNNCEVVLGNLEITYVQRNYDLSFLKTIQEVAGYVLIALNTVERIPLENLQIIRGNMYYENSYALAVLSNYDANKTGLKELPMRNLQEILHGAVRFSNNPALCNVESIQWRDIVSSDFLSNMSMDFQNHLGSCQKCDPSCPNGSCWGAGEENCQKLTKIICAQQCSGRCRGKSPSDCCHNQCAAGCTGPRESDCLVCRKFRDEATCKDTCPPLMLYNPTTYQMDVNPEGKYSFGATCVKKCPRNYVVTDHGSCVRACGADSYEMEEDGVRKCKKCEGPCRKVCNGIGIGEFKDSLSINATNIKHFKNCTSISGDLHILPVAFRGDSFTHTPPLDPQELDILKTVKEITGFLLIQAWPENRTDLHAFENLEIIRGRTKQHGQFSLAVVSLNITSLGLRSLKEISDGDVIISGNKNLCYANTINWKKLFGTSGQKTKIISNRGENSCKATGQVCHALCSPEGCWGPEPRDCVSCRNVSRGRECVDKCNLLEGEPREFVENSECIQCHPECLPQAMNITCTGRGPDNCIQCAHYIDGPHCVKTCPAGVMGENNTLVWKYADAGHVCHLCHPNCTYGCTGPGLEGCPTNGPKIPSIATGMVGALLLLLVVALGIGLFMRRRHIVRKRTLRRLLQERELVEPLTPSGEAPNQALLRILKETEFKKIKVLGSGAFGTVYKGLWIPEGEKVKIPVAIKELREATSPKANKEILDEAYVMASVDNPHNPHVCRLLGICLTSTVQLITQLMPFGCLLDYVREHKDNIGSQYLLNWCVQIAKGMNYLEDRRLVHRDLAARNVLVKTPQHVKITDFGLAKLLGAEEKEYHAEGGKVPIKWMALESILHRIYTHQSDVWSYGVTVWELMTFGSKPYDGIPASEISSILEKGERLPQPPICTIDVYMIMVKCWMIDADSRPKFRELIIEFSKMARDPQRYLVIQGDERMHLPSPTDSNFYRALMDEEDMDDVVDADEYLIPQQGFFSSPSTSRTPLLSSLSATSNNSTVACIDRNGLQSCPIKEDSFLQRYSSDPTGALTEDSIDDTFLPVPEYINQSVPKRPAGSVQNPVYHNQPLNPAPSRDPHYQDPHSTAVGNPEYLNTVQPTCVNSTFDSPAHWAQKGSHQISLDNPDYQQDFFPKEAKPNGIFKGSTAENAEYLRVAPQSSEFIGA
T3 sequence (P04626 with tags, fused parts or gaps INS775YVMA): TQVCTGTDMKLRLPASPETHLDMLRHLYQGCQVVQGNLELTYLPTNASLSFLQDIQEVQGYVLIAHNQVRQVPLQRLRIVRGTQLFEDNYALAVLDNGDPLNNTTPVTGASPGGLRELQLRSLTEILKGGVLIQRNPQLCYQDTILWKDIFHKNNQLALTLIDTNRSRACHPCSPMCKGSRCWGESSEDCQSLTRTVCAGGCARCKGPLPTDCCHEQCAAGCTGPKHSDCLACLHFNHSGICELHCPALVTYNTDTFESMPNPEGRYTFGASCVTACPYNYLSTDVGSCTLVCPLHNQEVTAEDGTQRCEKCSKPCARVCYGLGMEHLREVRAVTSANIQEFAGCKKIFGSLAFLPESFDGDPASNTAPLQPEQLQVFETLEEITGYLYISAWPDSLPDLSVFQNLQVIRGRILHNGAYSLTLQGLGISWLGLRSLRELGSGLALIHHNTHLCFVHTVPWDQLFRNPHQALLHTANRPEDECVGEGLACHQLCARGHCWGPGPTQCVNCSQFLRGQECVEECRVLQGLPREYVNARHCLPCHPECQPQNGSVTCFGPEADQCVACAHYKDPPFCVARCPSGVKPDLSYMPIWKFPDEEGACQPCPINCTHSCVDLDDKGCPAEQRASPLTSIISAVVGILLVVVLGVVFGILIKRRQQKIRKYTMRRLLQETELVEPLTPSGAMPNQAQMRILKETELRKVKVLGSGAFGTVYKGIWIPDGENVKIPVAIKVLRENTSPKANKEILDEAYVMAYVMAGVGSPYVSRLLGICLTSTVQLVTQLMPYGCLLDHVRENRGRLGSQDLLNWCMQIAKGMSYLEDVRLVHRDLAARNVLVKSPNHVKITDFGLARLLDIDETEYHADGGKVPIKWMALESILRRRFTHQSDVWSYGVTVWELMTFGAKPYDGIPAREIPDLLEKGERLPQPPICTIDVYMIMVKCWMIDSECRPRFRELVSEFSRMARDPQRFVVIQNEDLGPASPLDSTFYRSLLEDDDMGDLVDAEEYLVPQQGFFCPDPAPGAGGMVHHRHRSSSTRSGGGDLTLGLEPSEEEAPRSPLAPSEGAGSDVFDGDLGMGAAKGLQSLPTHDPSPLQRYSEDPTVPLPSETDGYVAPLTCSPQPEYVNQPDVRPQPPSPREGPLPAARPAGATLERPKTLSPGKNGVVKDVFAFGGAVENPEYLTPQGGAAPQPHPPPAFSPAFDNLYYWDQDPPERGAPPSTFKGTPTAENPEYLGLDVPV
T1 sequence (P00533 25-1210 N540K): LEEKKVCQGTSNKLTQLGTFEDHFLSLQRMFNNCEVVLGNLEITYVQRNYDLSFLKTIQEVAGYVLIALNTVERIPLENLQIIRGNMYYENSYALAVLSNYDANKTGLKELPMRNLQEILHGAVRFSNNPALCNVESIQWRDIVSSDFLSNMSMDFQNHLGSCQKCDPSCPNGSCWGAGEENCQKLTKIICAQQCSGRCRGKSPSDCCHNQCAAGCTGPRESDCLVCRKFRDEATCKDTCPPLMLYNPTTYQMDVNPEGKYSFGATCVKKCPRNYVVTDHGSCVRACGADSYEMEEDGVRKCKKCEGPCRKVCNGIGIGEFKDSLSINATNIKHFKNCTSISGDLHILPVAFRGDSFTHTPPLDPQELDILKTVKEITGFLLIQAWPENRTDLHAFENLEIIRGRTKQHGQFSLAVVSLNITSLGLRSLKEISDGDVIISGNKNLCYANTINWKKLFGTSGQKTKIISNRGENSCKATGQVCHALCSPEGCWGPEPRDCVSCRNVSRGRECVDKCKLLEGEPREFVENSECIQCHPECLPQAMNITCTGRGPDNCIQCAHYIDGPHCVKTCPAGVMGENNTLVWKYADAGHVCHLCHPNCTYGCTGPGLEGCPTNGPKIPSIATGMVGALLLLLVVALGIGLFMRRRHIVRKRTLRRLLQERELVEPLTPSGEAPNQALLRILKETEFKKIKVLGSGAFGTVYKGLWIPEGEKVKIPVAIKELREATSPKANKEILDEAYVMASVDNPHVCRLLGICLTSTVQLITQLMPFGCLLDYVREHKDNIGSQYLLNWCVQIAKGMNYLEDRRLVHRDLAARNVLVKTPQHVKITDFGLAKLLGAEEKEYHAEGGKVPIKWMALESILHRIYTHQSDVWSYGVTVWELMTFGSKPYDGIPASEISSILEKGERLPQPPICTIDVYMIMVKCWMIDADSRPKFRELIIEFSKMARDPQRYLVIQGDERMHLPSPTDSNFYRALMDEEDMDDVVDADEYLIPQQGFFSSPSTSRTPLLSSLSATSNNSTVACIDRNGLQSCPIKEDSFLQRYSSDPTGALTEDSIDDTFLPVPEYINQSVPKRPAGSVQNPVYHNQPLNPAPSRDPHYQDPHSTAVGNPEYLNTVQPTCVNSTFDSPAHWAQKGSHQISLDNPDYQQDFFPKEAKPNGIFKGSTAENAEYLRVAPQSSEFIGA
T5 sequence (P00533 with tags, fused parts or gaps DUP768-770): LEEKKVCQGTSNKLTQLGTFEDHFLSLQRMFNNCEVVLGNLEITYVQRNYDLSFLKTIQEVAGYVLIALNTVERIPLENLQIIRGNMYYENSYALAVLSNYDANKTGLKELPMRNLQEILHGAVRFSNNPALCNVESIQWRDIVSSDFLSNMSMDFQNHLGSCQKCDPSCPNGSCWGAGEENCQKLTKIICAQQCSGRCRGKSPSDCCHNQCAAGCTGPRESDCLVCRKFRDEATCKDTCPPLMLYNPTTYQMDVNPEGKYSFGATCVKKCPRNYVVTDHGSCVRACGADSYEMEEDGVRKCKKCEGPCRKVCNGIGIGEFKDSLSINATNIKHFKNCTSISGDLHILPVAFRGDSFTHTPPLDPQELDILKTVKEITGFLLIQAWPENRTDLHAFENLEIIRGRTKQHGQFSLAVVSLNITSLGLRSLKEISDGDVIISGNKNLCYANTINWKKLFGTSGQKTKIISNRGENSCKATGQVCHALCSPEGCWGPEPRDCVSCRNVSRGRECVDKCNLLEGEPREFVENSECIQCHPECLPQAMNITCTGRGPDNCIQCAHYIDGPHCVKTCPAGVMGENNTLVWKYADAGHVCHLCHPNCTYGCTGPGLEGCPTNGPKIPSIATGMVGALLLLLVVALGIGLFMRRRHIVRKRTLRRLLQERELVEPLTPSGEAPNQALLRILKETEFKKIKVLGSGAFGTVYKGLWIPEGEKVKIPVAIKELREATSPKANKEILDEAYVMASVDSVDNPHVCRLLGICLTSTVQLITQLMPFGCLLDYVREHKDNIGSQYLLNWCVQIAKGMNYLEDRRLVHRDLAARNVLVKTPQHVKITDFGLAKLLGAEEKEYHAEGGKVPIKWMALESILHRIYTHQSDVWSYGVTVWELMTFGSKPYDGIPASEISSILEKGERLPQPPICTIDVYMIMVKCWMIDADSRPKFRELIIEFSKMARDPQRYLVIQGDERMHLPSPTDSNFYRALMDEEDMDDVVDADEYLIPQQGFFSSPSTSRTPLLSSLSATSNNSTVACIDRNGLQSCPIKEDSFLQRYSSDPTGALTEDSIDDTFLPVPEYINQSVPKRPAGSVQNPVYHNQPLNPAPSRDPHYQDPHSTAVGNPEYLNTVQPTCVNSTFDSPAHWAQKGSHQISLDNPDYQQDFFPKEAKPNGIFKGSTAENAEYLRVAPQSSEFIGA

As to `C=CC(=O)Nc1cc2c(Nc3ccc(OCc4ccccn4)c(Cl)c3)ncnc2cc1OCCN1CCN(C)CC1` [compound 40], the IC50 in experiment [1] was 200 to 300 nM; in experiment [2] it was less than 5 nM; in experiment [3], 20 to 30 nM; in experiment [4], 10 to 20 nM; in [5] it was 10 to 20 nM; in [6] it was 10 to 20 nM. Besides, the IC50 was 10 to 20 nM in experiment [7]; 10 to 20 nM in [8]; less than 5 nM in [9] (setting [15]); not above 10 nM in [9] (setting [16]); 10 to 20 nM in experiment [10]; 200 to 300 nM in experiment [11]. For the same molecule, the IC50 in experiment [12] lay in the range of 10 to 20 nM; in [13] it was 10 to 20 nM; in [14] it was 20 to 30 nM.

Turning to `C=CC(=O)Nc1cc2c(Nc3ccc(OCc4ccccn4)c(Cl)c3)ncnc2cc1OCCN(C)C1CCOC1` (stereo not drawn) [compound 41], the IC50 in experiment [1] lay within 500 to 1000 nM; in [2], 5 to 10 nM; in experiment [3] it was 50 to 100 nM; in experiment [4], 30 to 50 nM; in experiment [5], 30 to 50 nM; in experiment [6], 50 to 100 nM. Further, the IC50 is 30 to 50 nM in experiment [7]; 50 to 100 nM in experiment [8]; 5 to 10 nM in experiment [9] (setting [15]); not above 10 nM in experiment [9] (setting [16]); 20 to 30 nM in experiment [10]; 500 to 1000 nM in experiment [11]. Besides, the IC50 in experiment [12] was 30 to 50 nM; in [13], 20 to 30 nM; in experiment [14] it was 50 to 100 nM.

As to `C=CC(=O)Nc1cc2c(Nc3ccc(OCc4ccccn4)c(Cl)c3)ncnc2cc1N1CCN(C)CC1` [compound 42], the IC50 was 500 to 1000 nM in [1]; 30 to 50 nM in [2]; 500 to 1000 nM in [3]; 50 to 100 nM in experiment [4]; 500 to 1000 nM in [5]; more than 1000 nM in [6]. Further, the IC50 was 500 to 1000 nM in experiment [7]; more than 1000 nM in [8]; 30 to 50 nM in experiment [9] (setting [15]); not above 50 nM in [9] (setting [16]); 50 to 100 nM in experiment [10]; 500 to 1000 nM in experiment [11]. Further, the IC50 in experiment [12] was in the range of 50 to 100 nM; in [13], 50 to 100 nM; in experiment [14], 500 to 1000 nM.

As for `C=CC(=O)Nc1cc2c(Nc3ccc(OCc4ccccn4)c(Cl)c3)ncnc2cc1N1CC2CN(C)CC2C1` (stereo not drawn) [compound 47], the IC50 in experiment [1] lay within 300 to 500 nM; in [2] it was 10 to 20 nM; in experiment [3], 500 to 1000 nM; in experiment [4], 30 to 50 nM; in experiment [5], 500 to 1000 nM; in experiment [6], 500 to 1000 nM. Moreover, the IC50 in [7] is 500 to 1000 nM; in [8] it was 500 to 1000 nM; in experiment [9] (setting [15]) it was 10 to 20 nM; in experiment [9] (setting [16]), not above 20 nM; in experiment [10], 30 to 50 nM; in [11], 300 to 500 nM. For the same molecule, the IC50 in [12] lay within 30 to 50 nM; in experiment [13] it was 30 to 50 nM; in [14], 500 to 1000 nM.

For the molecule `C=CC(=O)Nc1cc2c(Nc3ccc(OCc4ccccn4)c(Cl)c3)ncnc2cc1OCCN1CC2COCC2C1` (stereo not drawn) [compound 51], the IC50 in [1] fell in the range of 500 to 1000 nM; in [2], 5 to 10 nM; in experiment [3], 50 to 100 nM; in experiment [4] it was 20 to 30 nM; in experiment [5], 30 to 50 nM; in experiment [6], 50 to 100 nM. Besides, the IC50 in experiment [7] was 30 to 50 nM; in experiment [8], 50 to 100 nM; in experiment [9] (setting [15]), 5 to 10 nM; in experiment [9] (setting [16]) it was not above 10 nM; in experiment [10] it was 10 to 20 nM; in experiment [11], 500 to 1000 nM. For the same molecule, the IC50 in [12] was in the range of 20 to 30 nM; in experiment [13], 10 to 20 nM; in [14], 50 to 100 nM.

Source of the values: US11034672B1, “Tyrosine kinase inhibitor compositions, methods of making and methods of use” (Black Diamond Therapeutics, Inc., priority 2018, dated 2021).
